In this experiment the target is T1, PDE10 (UniProt Q8CA95).
T1 sequence (Q8CA95 1-790): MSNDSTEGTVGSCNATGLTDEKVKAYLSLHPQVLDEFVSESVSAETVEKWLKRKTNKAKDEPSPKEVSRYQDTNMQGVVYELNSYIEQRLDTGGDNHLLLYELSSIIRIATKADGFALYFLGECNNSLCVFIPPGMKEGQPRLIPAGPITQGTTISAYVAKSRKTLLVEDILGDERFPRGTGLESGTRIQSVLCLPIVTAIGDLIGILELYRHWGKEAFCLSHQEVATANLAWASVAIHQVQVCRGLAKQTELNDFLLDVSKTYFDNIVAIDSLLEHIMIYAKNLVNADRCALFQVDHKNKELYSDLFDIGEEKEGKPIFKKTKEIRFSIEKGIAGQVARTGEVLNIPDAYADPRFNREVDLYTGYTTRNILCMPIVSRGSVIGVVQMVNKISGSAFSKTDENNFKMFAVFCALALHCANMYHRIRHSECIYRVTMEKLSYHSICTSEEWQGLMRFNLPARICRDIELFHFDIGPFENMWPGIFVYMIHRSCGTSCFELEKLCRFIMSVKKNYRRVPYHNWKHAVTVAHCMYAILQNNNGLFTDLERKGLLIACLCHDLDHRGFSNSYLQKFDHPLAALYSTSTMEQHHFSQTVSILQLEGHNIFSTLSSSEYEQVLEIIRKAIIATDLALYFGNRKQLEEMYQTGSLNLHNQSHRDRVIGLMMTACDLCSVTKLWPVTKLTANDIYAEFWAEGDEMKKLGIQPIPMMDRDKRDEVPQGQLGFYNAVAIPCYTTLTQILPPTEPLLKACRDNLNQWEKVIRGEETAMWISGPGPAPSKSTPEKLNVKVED
In words: PDE10 enzyme inhibition, IMAP TR-FRET assay (Example A: MPDE10A7 Enzyme Activity and Inhibition). The experiment is classed as biochemical. The method, then: MPDE10A7 Enzyme Activity and Inhibition Enzyme Activity. An IMAP TR-FRET assay was used to analyze the enzyme activity (Molecular Devices Corp., Sunnyvale Calif.). 5 μL of serial diluted PDE10A (BPS Bioscience, San Diego, Calif.) or tissue homogenate was incubated with equal volumes of diluted fluorescein labeled cAMP or cGMP for 60 min in 384-well polystyrene assay plates (Corning, Corning, N.Y.) at room temperature. After incubation, the reaction was stopped by adding 60 μL of diluted binding reagents and was incubated for 3 hours to overnight at room temperature. The plates were read on an Envision (Perkin Elmer, Waltham, Mass.) for time resolved fluorescence resonance energy transfer. The data were analyzed with GraphPad Prism (La Jolla, Calif.). Enzyme Inhibition. To check the inhibition profile, 5 μL of serial diluted compounds were incubated with 5 μL of diluted PDE10 enzyme (BPS Bioscience, San Diego, Calif.) or tissue homogenate in a 384-well polystyrene assay plate (Corning, Corning, N.Y.) for 30 min at room temperature. After incubation, 10 μL of diluted fluorescein labeled cAMP or cGMP substrate were added and incubated for 60 min at room temperature. The reaction was stopped by adding 60 μL of diluted binding reagents and plates were read on an Envision (Perkin Elmer, Waltham, Mass.) for time resolved fluorescence resonance energy transfer. The data were analyzed with GraphPad Prism (La Jolla, Calif.).
(In general: In TR-FRET formats the signal depends on donor and acceptor labels being close together.)

Where [1] appears, read: Table 1A, Examples 11-56, read-out: PDE10 IC50.

Where two headings read alike, the source gives them in different places.

Broadly, the IC50 is the concentration that gives 50% inhibition. Regarding `COc1cccc(-c2nccnc2N2CC(c3nc4cc(Cl)ccc4[nH]3)C2)c1` [Example 28, 5-chloro-2-{1-[3-(3-methoxy-phenyl)-pyrazin-2-yl]-azetidin-3-yl}-1H-benzoimidazole], the IC50 under setting [1] came out at 0.026 µM.

As to `COc1ccc(-c2nccnc2N2CC(c3nc4cc(Cl)ccc4[nH]3)C2)cc1` [Example 29, 5-chloro-2-{1-[3-(4-methoxy-phenyl)-pyrazin-2-yl]-azetidin-3-yl}-1H-benzoimidazole], under setting [1], the IC50 came out at 0.11 µM.

Turning to `Clc1ccc2[nH]c(C3CN(c4nccnc4-c4ccccc4Cl)C3)nc2c1` [Example 30, 5-chloro-2-{1-[3-(2-chloro-phenyl)-pyrazin-2-yl]-azetidin-3-yl}-1H-benzoimidazole], the IC50 under setting [1] worked out at 0.0586 µM.

Take `Clc1cccc(-c2nccnc2N2CC(c3nc4cc(Cl)ccc4[nH]3)C2)c1` [Example 31, 5-chloro-2-{1-[3-(3-chloro-phenyl)-pyrazin-2-yl]-azetidin-3-yl}-1H-benzoimidazole]: the IC50 under setting [1] was determined as 0.119 µM.

As to `Clc1ccc(-c2nccnc2N2CC(c3nc4cc(Cl)ccc4[nH]3)C2)cc1` [Example 32, 5-chloro-2-{1-[3-(4-chloro-phenyl)-pyrazin-2-yl]-azetidin-3-yl}-1H-benzoimidazole], the IC50 under setting [1] amounted to 0.141 µM.

Turning to `Clc1ccc2[nH]c(C3CN(c4nccnc4-c4cccnc4)C3)nc2c1` [Example 33, 5-chloro-2-[1-(3-pyridin-3-yl-pyrazin-2-yl)-azetidin-3-yl]-1H-benzoimidazole], under setting [1], the IC50 is 0.538 µM.

Regarding `Clc1ccc2[nH]c(C3CN(c4nccnc4-c4ccncc4)C3)nc2c1` [Example 34, 5-chloro-2-[1-(3-pyridin-4-yl-pyrazin-2-yl)-azetidin-3-yl]-1H-benzoimidazole], the IC50 under setting [1] stood at 0.134 µM.

As to `CN(C)C(=O)c1nccnc1N1CC(c2nc3cc(Cl)ccc3[nH]2)C1` [Example 35, 3-[3-(5-chloro-1H-benzoimidazol-2-yl)-azetidin-1-yl]-pyrazine-2-carboxylic acid dimethylamide], under setting [1], the IC50 was found to be 10 µM.

For `O=C(NC1CCOCC1)c1nccnc1N1CC(c2nc3cc(Cl)ccc3[nH]2)C1` [Example 36, 3-[3-(5-chloro-1H-benzoimidazol-2-yl)-azetidin-1-yl]-pyrazine-2-carboxylic acid (tetrahydro-pyran-4-yl)-amide], under setting [1], the IC50 came out at 3.28 µM.

On to `O=C(NC[C@H]1CCCO1)c1nccnc1N1CC(c2nc3cc(Cl)ccc3[nH]2)C1` [Example 37, 3-[3-(5-chloro-1H-benzoimidazol-2-yl)-azetidin-1-yl]-pyrazine-2-carboxylic acid (tetrahydro-furan-2-ylmethyl)-amide], for which, under setting [1], the IC50 came to 2.53 µM.

For the molecule `O=C(NC[C@@H]1CCCO1)c1nccnc1N1CC(c2nc3cc(Cl)ccc3[nH]2)C1` [Example 38, 3-[3-(5-chloro-1H-benzoimidazol-2-yl)-azetidin-1-yl]-pyrazine-2-carboxylic acid (tetrahydro-furan-2-ylmethyl)-amide], the IC50 under setting [1] was determined as 2.15 µM.

Turning to `Cc1ccc2[nH]c(C3CN(c4nccnc4-c4ccccc4)C3)nc2c1` [Example 39, 5-methyl-2-(1-(3-phenylpyrazin-2-yl)azetidin-3-yl)-1H-benzo[d]imidazole], the IC50 under setting [1] worked out at 0.0398 µM.

Turning to `Clc1ccc2[nH]c(C3CN(c4nccnc4Nc4ccccc4)C3)nc2c1` [Example 40, 3-(3-(5-chloro-1H-benzo[d]imidazol-2-yl)azetidin-1-yl)-N-phenylpyrazin-2-amine], the IC50 under setting [1] is 0.63 µM.

In the case of `CN(c1ccccc1)c1nccnc1N1CC(c2nc3cc(Cl)ccc3[nH]2)C1` [Example 41, 3-(3-(5-chloro-1H-benzo[d]imidazol-2-yl)azetidin-1-yl)-N-methyl-N-phenylpyrazin-2-amine], the IC50 under setting [1] stood at 0.074 µM.

Regarding `Clc1ccc2[nH]c(C3CN(c4nccnc4Oc4ccccc4)C3)nc2c1` [Example 42, 5-chloro-2-(1-(3-phenoxypyrazin-2-yl)azetidin-3-yl)-1H-benzo[d]imidazole], the IC50 under setting [1] is 0.0809 µM.

As to `CN1CCN(c2nccnc2N2CC(c3nc4cc(Cl)ccc4[nH]3)C2)CC1` [Example 43, 5-chloro-2-(1-(3-(4-methylpiperazin-1-yl)pyrazin-2-yl)azetidin-3-yl)-1H-benzo[d]imidazole], the IC50 under setting [1] is 0.305 µM.

As to `Clc1ccc2[nH]c(C3CN(c4nccnc4N4CCCCC4)C3)nc2c1` [Example 44, 5-chloro-2-(1-(3-(piperidin-1-yl)pyrazin-2-yl)azetidin-3-yl)-1H-benzo[d]imidazole], the IC50 under setting [1] was 0.92 µM.

Turning to `COc1nccnc1N1CC(c2nc3cc(Cl)ccc3[nH]2)C1` [Example 45, 5-chloro-2-(1-(3-methoxypyrazin-2-yl)azetidin-3-yl)-1H-benzo[d]imidazole], under setting [1], the IC50 amounted to 0.499 µM.

As to `Cc1ccc2[nH]c(C3CN(c4nccnc4N4CCOCC4)C3)nc2c1` [Example 46, 4-(3-(3-(5-methyl-1H-benzo[d]imidazol-2-yl)azetidin-1-yl)pyrazin-2-yl)morpholine], the IC50 under setting [1] stood at 0.6 µM.

As to `Cc1ccc2[nH]c(C3CN(c4ncccc4Cl)C3)nc2c1` [Example 47, 2-(1-(3-chloropyridin-2-yl)azetidin-3-yl)-5-methyl-1H-benzo[d]imidazole], the half-inhibitory concentration (IC50) under setting [1] was 3.84 µM.

Turning to `Cc1ccc2[nH]c(C3CN(c4nccnc4Cl)C3)nc2c1` [Example 48, 2-(1-(3-chloropyrazin-2-yl)azetidin-3-yl)-5-methyl-1H-benzo[d]imidazole], the IC50 under setting [1] was 0.456 µM.

Take `Clc1ccc2[nH]c(C3CN(c4ncccc4OC4CCOCC4)C3)nc2c1` [Example 49, 5-chloro-2-(1-(3-(tetrahydro-2H-pyran-4-yloxy)pyridin-2-yl)azetidin-3-yl)-1H-benzo[d]imidazole]: under setting [1], the IC50 stood at 0.168 µM.

In the case of `Clc1ccc2[nH]c(C3CN(c4nccnc4N4CCOCC4)C3)nc2c1` [Example 50, 4-(3-(3-(5-chloro-1H-benzo[d]imidazol-2-yl)azetidin-1-yl)pyrazin-2-yl)morpholine], the half-inhibitory concentration (IC50) under setting [1] was 0.134 µM.

For `Clc1ccc2[nH]c(C3CN(c4nccnc4C4=CCOCC4)C3)nc2c1` [Example 51, 5-chloro-2-(1-(3-(3,6-dihydro-2H-pyran-4-yl)pyrazin-2-yl)azetidin-3-yl)-1H-benzo[d]imidazole], the 50% inhibitory concentration (IC50) under setting [1] was 0.442 µM.

With `Clc1ccc2[nH]c(C3CN(c4ncccc4Br)C3)nc2c1` [Example 52, 2-(1-(3-bromopyridin-2-yl)azetidin-3-yl)-5-chloro-1H-benzo[d]imidazole], the IC50 under setting [1] turned out to be 1.82 µM.

As to `Clc1ccc2[nH]c(C3CN(c4nccnc4Cl)C3)nc2c1` [Example 53, 5-chloro-2-(1-(3-chloropyrazin-2-yl)azetidin-3-yl)-1H-benzo[d]imidazole], under setting [1], the 50% inhibitory concentration (IC50) amounted to 1.16 µM.

On to `Clc1ccc2[nH]c(C3CN(c4ncccc4Cl)C3)nc2c1` [Example 54, 5-chloro-2-(1-(3-chloropyridin-2-yl)azetidin-3-yl)-1H-benzo[d]imidazole], for which the IC50 under setting [1] stood at 0.00781 µM.

Take `Clc1ccc2[nH]c(C3CN(c4nc(Cl)ncc4Cl)C3)nc2c1` [Example 55, 5-chloro-2-(1-(2,5-dichloropyrimidin-4-yl)azetidin-3-yl)-1H-benzo[d]imidazole]: under setting [1], the IC50 amounted to 0.52 µM.

For `Clc1ccc2[nH]c(C3CN(c4ncccc4C4CCOCC4)C3)nc2c1` [Example 56, 5-chloro-2-(1-(3-(tetrahydro-2H-pyran-4-yl)pyridin-2-yl)azetidin-3-yl)-1H-benzo[d]imidazole], the IC50 under setting [1] came to 0.987 µM.

On to `c1ccc2nc(C3CN(c4nccnc4N4CCCCC4)C3)ccc2c1` [Example 57], for which, for the setting “read-out: IC50”, the IC50 worked out at 0.689 µM.

As to `Cc1cccc(-c2nccnc2N2CC(c3ccc4ccccc4n3)C2)c1` [Example 58, 2-[1-(3-M-TOLYL-PYRAZIN-2-YL)-AZETIDIN-3-YL]-QUINOLINE], for the setting “read-out: IC50”, the IC50 was 0.00761 µM.

On to `c1cnc(N2CC(c3ccc4ccccc4n3)C2)c(N2CCCCC2)c1` [Example 59, 2′-(3-QUINOLIN-2-YL-AZETIDIN-1-YL)-3,4,5,6-TETRAHYDRO-2H-[1,3′]BIPYRIDINYL], for which the IC50 (read-out: IC50) is 0.068 µM.

As to `COc1cccc(-c2cccnc2N2CC(c3ccc4ccccc4n3)C2)c1` [Example 60, 2-{1-[3-(3-METHOXY-PHENYL)-PYRIDIN-2-YL]-AZETIDIN-3-YL}-QUINOLINE], the IC50 (read-out: IC50) was 6.82 µM.

The record behind these values is patent US8946230B2, “Aryl- and heteroaryl- nitrogen-heterocyclic compounds as PDE10 inhibitors” (Amgen Inc., priority 2010, dated 2015).
